Laboratory results as given in patent publication US20040087498A1, “Modified factor VII” (Novo Nordisk Health Care AG, priority 1991, published 2004).

Key:
[1] = tested on: intimal lesion development in femoral arteries; test: Morphometry of intima and media after balloon angioplasty in atherosclerotic rabbits; type: in vivo; conditions: rabbit femoral artery, three weeks post-angioplasty; 1 mg/kg bolus + 50 μg/kg/hr for 3 days
Procedure: DEGR-FVIIa was evaluated for its ability to modulate lesion development following balloon angioplasty in New Zealand White (NZW) atherosclerotic rabbits. This animal model has been well characterized and has proven to be a good model for evaluating anti-thrombotic compounds on vascular lesion development (Gimple et al., Circulation 86:1536-1546 (1992), and Rogosta et al., Circulation 89:1262-1271 (1994)). The animal model used to evaluate DEGR-FVIIa is essentially as described by Ragosta, ibid.
Anesthesia was induced in rabbits with 5 mg/kg xylazine and 35 mg/kg ketamine by intramuscular injection. The proximal femoral arteries were exposed by cutdown below the inguinal ligament with proximal and distal ligatures. The isolated segments were cannulated with 27 gauge needles. A vent was created by needle puncture. The isolated segments were flushed with saline to clear residual blood, and desiccated by air infused at a rate of 80 ml/min for 8 minutes. Following air-drying, the isolated segments were again flushed with saline and the ligatures removed. Hemostasis was maintained with non-occlusive local pressure. The segments were demarcated with metal clips. Local spasm was treated with Xylocaine 1% locally. The day following surgery, the animals were placed on 1% cholesterol and 6% peanut oil diet for one month until balloon angioplasty. […]

[2] = tested on: cell-surface tissue factor on baboon smooth muscle cells; test: Cell-surface Factor Xa generation on baboon SMCs; type: cell-based
Source text: A cell-surface chromogenic assay was developed, essentially as described in Example VIII above, to measure the efficacy of DEGR-FVIIa to block FVIIa binding to cell-surface tissue factor and the subsequent conversion of Factor X to Factor Xa on monolayers of baboon smooth muscle cells (SMCs). This method is a modification of those described by Sakai et al., J. Bio. Chem. 264:9980-9988 (1989) and Wildgoose et al., Proc. Natl. Acad. Sci. USA. 87:7290-7294 (1990). Baboon SMCs were obtained from the University of Washington, Seattle, Wash., and were cultured from aortic explants. The baboon SMCs were plated into 96-well culture dishes at a concentration of 8,000 cells/well in 200 μl/well DMEM culture media supplemented with 10% fetal calf serum, and maintained in this media for 4 days at 37° C. in 5% CO2. At the time of assay 110 μl of culture media was removed, and increasing concentrations of FVIIa or FVIIa in combination with DEGR-FVIIa were added to wells. A standard curve for FVIIa concentration was generated, ranging from 5 nM to 0.04 nM. […] Twenty-five microliters per well of 0.8 mM S-2222, a factor Xa-specific chromogenic substrate, in Tris buffer was added and the absorbance at 405 nm read after 60 mins in a Thermomax microplate reader (Molecular Devices Corp., Menlo Park, Calif.).

**Q.** With “DEGR-Factor VIIa: Recombinant human Factor VIIa with its active site derivatized by Dansyl-L-Glu-Gly-Arg-chloromethyl Ketone (DEGRck)” as the substance, how does the Intima [1] read?
**A.** The Intima was 0.438 mm2.

**Q.** And the Media [1]?
**A.** The Media was 0.329 mm2.

**Q.** What about the “inhibition in the generation of Factor Xa chromogenic activity” value ([2]; 10-fold lower level of DEGR-FVIIa than FVIIa (5 nM)) of the same substance?
**A.** The value was 40%.

**Q.** And the “inhibition of the chromogenic activity” value ([2]; equal molar ratio of DEGR-FVIIa to FVIIa (5 nM))?
**A.** The value was > 90%.
